According to patent US20250353891A1 (MEDIMMUNE LIMITED, priority 2022, published 2025):
Like-named read-outs stand apart in the source and are kept apart here. Starred links: 1 amine or outer side, 2 acyl side, 3 side chain; linkers in the order of their positions; H or OH if unused. Non-standard residues stand in square brackets, D forms with d. Residues, ends and D or L forms follow the SMILES beside them. Groups on a side chain read outwards from the residue. *: point of attachment. C18 diacid = O=C(O)CCCCCCCCCCCCCCCCC(=O)*; Dip = N[C@H](C(=O)O)C(c1ccccc1)c1ccccc1; γGlu = O=C(O)[C@H](CCC(=O)[*:2])N[*:1]; Stearoyl = CCCCCCCCCCCCCCCCCC(=O)*; αMeF = C[C@](N)(Cc1ccccc1)C(=O)O; PEG2 = NCCOCCOCCC(=O)O; AEEA = NCCOCCOCC(=O)O; Aib = CC(C)(N)C(=O)O

Key:
[1] = target: human glucagon receptor (hGCGR) (Homo sapiens, UniProt P47871); experiment: cAMP production (HTRF) in CHO cells expressing hGCGR; type: cell-based; set-up: expressed in transfected cells; settings: cAMP in CHO hGCGR cells, geometric mean, read-out: hGluc-R EC50
Summary of the method: (§1)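 Potency values represent EC50 from 4-parameter logistic curves of HTRF % Delta F signal. Receptor-expressing CHO cells (hGCGR 2×10^5 cells/mL, hGLP-1R 1×10^5 cells/mL) were exposed for 30 min at room temperature before two-step cAMP detection.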

[2] = Mouse acute food intake study; type: in vivo; settings: male C57Bl/6 mice, s.c., dose 10 nmol/kg, cumulative food intake at 24 hr vs vehicle
Experimental: Male C57Bl/6 mice obtained from Jackson Laboratories or Charles River at 8-9 weeks of age and were housed one per cage in BioDaq (Research Diets) cages. Mice were placed on Alpha Dri bedding, standard chow diet (Envigo, 2018) and given water pouches. Mice were allowed to acclimate for 1-2 weeks. Body weight was measured to ensure appropriate acclimation. After acclimation, mice were sham dosed a minimum of 2 times prior to initiation of food intake study. On study day, mice were placed in clean cage bottoms, weighed, and fasted for 6-8 hours. Mice were sorted into groups based on average 24-hour food intake data and body weight. 1-2 hours prior to lights out, mice were dosed subcutaneously with one vehicle or test peptide dissolved in an appropriate vehicle at 5 mL/kg. Mice were left undisturbed and allowed access to food and water for 48 hours. Automated food intake was monitored in the BioDaq system was monitored during this time. Discrete food intake data was exported into MS Excel from which cumulative food intake data was generated and analyzed.

[3] = target: human GLP-1 receptor (hGLP-1R) (Homo sapiens, UniProt P43220); experiment: cAMP production (HTRF) in CHO cells expressing hGLP-1R; type: cell-based; set-up: expressed in transfected cells; settings: for EC50: cAMP in CHO hGLP-1R cells, geometric mean, read-out: hGLP-1R EC50; for % Relative Potency Ratio: % GLP-1R activity relative to GLP-1 / % GlucR activity relative to glucagon
Summary of the method: as §1

[4] = Table 6, peptides modified at position 17
[5] = Table 7, peptides modified at position 20

human glucagon receptor (hGCGR), sequence (P47871 26-477): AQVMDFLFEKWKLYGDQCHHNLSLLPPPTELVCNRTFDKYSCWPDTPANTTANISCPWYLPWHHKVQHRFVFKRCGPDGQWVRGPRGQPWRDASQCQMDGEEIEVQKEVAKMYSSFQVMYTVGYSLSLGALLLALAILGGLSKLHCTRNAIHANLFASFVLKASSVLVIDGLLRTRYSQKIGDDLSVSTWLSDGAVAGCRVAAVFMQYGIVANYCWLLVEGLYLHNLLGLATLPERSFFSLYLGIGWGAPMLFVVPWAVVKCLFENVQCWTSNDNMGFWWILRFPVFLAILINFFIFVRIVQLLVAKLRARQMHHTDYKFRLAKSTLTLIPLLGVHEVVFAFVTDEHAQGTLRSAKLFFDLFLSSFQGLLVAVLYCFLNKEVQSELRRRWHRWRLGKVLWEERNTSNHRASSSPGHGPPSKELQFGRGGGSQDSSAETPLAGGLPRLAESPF
human GLP-1 receptor (hGLP-1R), sequence (P43220 24-463): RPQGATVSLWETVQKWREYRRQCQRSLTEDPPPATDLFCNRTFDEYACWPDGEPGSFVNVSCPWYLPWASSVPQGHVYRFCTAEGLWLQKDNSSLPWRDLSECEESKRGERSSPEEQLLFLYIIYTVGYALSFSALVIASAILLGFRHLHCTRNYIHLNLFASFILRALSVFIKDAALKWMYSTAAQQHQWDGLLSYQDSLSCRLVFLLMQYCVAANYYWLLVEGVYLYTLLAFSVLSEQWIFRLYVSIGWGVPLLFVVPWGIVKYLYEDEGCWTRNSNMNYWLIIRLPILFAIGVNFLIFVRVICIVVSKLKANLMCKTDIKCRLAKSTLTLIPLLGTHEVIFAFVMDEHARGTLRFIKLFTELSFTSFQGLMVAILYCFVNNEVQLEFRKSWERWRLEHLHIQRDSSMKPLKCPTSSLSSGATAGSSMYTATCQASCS

Row | Structure (SMILES) | EC50 [1, 4] | EC50 [3, 4] | % Relative Potency Ratio ([3]; Table 6) | EC50 [1, 5] | EC50 [3, 5] | % Relative Potency Ratio ([3]; Table 7) | 24 hr % Vehicle Food Intake [2]
1 | CCCCCCCCCCCCCCCCCC(=O)N[C@@H](CCC(=O)N[C@@H](CCC(=O)NCCOCCOCCC(=O)NCCOCCOCCC(=O)NCCCC[C@H](NC(=O)[C@H](CO)NC(=O)[C@H](CC(=O)O)NC(=O)[C@H](CC(C)C)NC(=O)[C@@H](NC(=O)[C@H](CCCCN)NC(=O)[C@H](CO)NC(=O)[C@@H](NC(=O)[C@H](CC(=O)O)NC(=O)[C@H](CO)NC(=O)[C@@H](NC(=O)[C@](C)(Cc1ccccc1)NC(=O)[C@H](CO)NC(=O)CNC(=O)[C@H](CCC(N)=O)NC(=O)C(C)(C)NC(=O)[C@@H](N)Cc1c[nH]cn1)[C@@H](C)O)C(C)C)C(c1ccccc1)c1ccccc1)C(=O)N[C@@H](C)C(=O)N[C@@H](C)C(=O)N[C@@H](CCC(N)=O)C(=O)N[C@@H](CC(=O)O)C(=O)N[C@@](C)(Cc1ccccc1)C(=O)N[C@H](C(=O)N[C@@H](CCC(=O)O)C(=O)NC(C)(C)C(=O)N[C@@H](CC(C)C)C(=O)N[C@@H](C)C(=O)N[C@@H](CC(N)=O)C(=O)N[C@H](C(N)=O)[C@@H](C)O)C(C)C)C(=O)O)C(=O)O [Peptide 45] (H-H[Aib]QGS[αMeF]TSDVSK[Dip]LDSK([PEG2-PEG2-γGlu-γGlu-Stearoyl])AAQD[αMeF]VE[Aib]LANT-NH2; N-terminus assumed) | 14.9 pM | 2.03 pM | 14.6 |  |  |  | 76.2%
2 | CC(C)C[C@H](NC(=O)[C@H](Cc1c[nH]c2ccccc12)NC(=O)[C@H](CCC(N)=O)NC(=O)[C@@H](NC(=O)[C@H](Cc1ccccc1)NC(=O)[C@H](CC(=O)O)NC(=O)[C@H](CCCCNC(=O)COCCOCCNC(=O)COCCOCCNC(=O)CC[C@H](NC(=O)CCCCCCCCCCCCCCCCC(=O)O)C(=O)O)NC(=O)[C@H](C)NC(=O)[C@H](CCCNC(=N)N)NC(=O)[C@H](CCC(=O)O)NC(=O)[C@H](CO)NC(=O)[C@H](CC(=O)O)NC(=O)[C@H](CC(C)C)NC(=O)[C@](C)(Cc1ccccc1)NC(=O)[C@H](CCCCN)NC(=O)[C@H](CO)NC(=O)[C@@H](NC(=O)[C@H](CC(=O)O)NC(=O)[C@H](CO)NC(=O)[C@@H](NC(=O)[C@H](Cc1ccccc1)NC(=O)[C@@H](NC(=O)CNC(=O)[C@H](CCC(N)=O)NC(=O)C(C)(C)NC(=O)[C@@H](N)Cc1c[nH]cn1)[C@@H](C)O)[C@@H](C)O)C(C)C)C(C)C)C(=O)N[C@@H](CCC(=O)O)C(=O)N[C@@H](C)C(=O)NCC(=O)NCC(=O)O [Peptide 521] |  |  |  | 10100 pM | 677 pM | 29.5 | 
3 | CC(C)C[C@H](NC(=O)[C@H](Cc1c[nH]c2ccccc12)NC(=O)[C@H](C)NC(=O)[C@@H](NC(=O)[C@H](Cc1ccccc1)NC(=O)[C@H](CC(=O)O)NC(=O)[C@H](CCCCNC(=O)COCCOCCNC(=O)COCCOCCNC(=O)CC[C@H](NC(=O)CCCCCCCCCCCCCCCCCCC(=O)O)C(=O)O)NC(=O)[C@H](C)NC(=O)[C@H](CCCNC(=N)N)NC(=O)[C@H](CCC(=O)O)NC(=O)[C@H](CO)NC(=O)[C@H](CC(=O)O)NC(=O)[C@H](CC(C)C)NC(=O)[C@](C)(Cc1ccccc1)NC(=O)[C@H](CCCCN)NC(=O)[C@H](CO)NC(=O)[C@@H](NC(=O)[C@H](CC(=O)O)NC(=O)[C@H](CO)NC(=O)[C@@H](NC(=O)[C@H](Cc1ccccc1)NC(=O)[C@@H](NC(=O)CNC(=O)[C@H](CCC(N)=O)NC(=O)C(C)(C)NC(=O)[C@@H](N)Cc1c[nH]cn1)[C@@H](C)O)[C@@H](C)O)C(C)C)C(C)C)C(=O)N[C@@H](CCC(=O)O)C(=O)N[C@@H](C)C(=O)NCC(=O)NCC(=O)O [Peptide 523] |  |  |  | > 24700 pM | 615 pM |  | 
4 | CC(C)C[C@H](NC(=O)[C@H](Cc1c[nH]c2ccccc12)NC(=O)[C@H](CCCNC(=N)N)NC(=O)[C@@H](NC(=O)[C@H](Cc1ccccc1)NC(=O)[C@H](CC(=O)O)NC(=O)[C@H](CCCCNC(=O)COCCOCCNC(=O)COCCOCCNC(=O)CC[C@H](NC(=O)CCCCCCCCCCCCCCCCC(=O)O)C(=O)O)NC(=O)[C@H](C)NC(=O)[C@H](CCCNC(=N)N)NC(=O)[C@H](CCC(=O)O)NC(=O)[C@H](CO)NC(=O)[C@H](CC(=O)O)NC(=O)[C@H](CC(C)C)NC(=O)[C@](C)(Cc1ccccc1)NC(=O)[C@H](CCC(=O)O)NC(=O)[C@H](CO)NC(=O)[C@@H](NC(=O)[C@H](CC(=O)O)NC(=O)[C@H](CO)NC(=O)[C@@H](NC(=O)[C@H](Cc1ccccc1)NC(=O)[C@@H](NC(=O)CNC(=O)[C@H](CCC(N)=O)NC(=O)C(C)(C)NC(=O)[C@@H](N)Cc1c[nH]cn1)[C@@H](C)O)[C@@H](C)O)C(C)C)C(C)C)C(=O)N[C@@H](CCC(=O)O)C(=O)N[C@@H](C)C(=O)NCC(=O)NCC(=O)O [Peptide 524] (H-H[Aib]QGTFTSDVSE[αMeF]LDSERAK([AEEA-AEEA-γGlu-C18 diacid])DFVRWLEAGG-OH) |  |  |  | > 24400 pM | 366 pM |  | 

The remaining compounds from weak to strong by EC50 [1, 5], led by results:

Row | EC50 [1, 4] | EC50 [3, 4] | % Relative Potency Ratio ([3]; Table 6) | EC50 [1, 5] | EC50 [3, 5] | % Relative Potency Ratio ([3]; Table 7) | Structure (SMILES) | 24 hr % Vehicle Food Intake [2]
5 |  |  |  | 6360 pM | 508 pM | 24.8 | CC(C)C[C@H](NC(=O)[C@H](Cc1c[nH]c2ccccc12)NC(=O)[C@H](C)NC(=O)[C@@H](NC(=O)[C@H](Cc1ccccc1)NC(=O)[C@H](CC(=O)O)NC(=O)[C@H](CCCCNC(=O)COCCOCCNC(=O)COCCOCCNC(=O)CC[C@H](NC(=O)CCCCCCCCCCCCCCCCC(=O)O)C(=O)O)NC(=O)[C@H](C)NC(=O)[C@H](CCCNC(=N)N)NC(=O)[C@H](CCC(=O)O)NC(=O)[C@H](CO)NC(=O)[C@H](CC(=O)O)NC(=O)[C@H](CC(C)C)NC(=O)[C@](C)(Cc1ccccc1)NC(=O)[C@H](CCCCN)NC(=O)[C@H](CO)NC(=O)[C@@H](NC(=O)[C@H](CC(=O)O)NC(=O)[C@H](CO)NC(=O)[C@@H](NC(=O)[C@H](Cc1ccccc1)NC(=O)[C@@H](NC(=O)CNC(=O)[C@H](CCC(N)=O)NC(=O)C(C)(C)NC(=O)[C@@H](N)Cc1c[nH]cn1)[C@@H](C)O)[C@@H](C)O)C(C)C)C(C)C)C(=O)N[C@@H](CCC(=O)O)C(=O)N[C@@H](C)C(=O)NCC(=O)NCC(=O)O [Peptide 522] | 
6 |  |  |  | 2450 pM | 177 pM | 27.4 | CC(C)C[C@H](NC(=O)[C@H](Cc1c[nH]c2ccccc12)NC(=O)[C@H](CCC(N)=O)NC(=O)[C@@H](NC(=O)[C@H](Cc1ccccc1)NC(=O)[C@H](CC(=O)O)NC(=O)[C@H](CCCCNC(=O)COCCOCCNC(=O)COCCOCCNC(=O)CC[C@H](NC(=O)CCCCCCCCCCCCCCCCC(=O)O)C(=O)O)NC(=O)[C@H](C)NC(=O)[C@H](CCCNC(=N)N)NC(=O)[C@H](CCC(=O)O)NC(=O)[C@H](CO)NC(=O)[C@H](CC(=O)O)NC(=O)[C@H](CC(C)C)NC(=O)[C@](C)(Cc1ccccc1)NC(=O)[C@H](CCCCN)NC(=O)[C@H](CO)NC(=O)[C@@H](NC(=O)[C@H](CC(=O)O)NC(=O)[C@H](CO)NC(=O)[C@@H](NC(=O)[C@H](Cc1ccccc1)NC(=O)[C@@H](NC(=O)CNC(=O)[C@H](CCC(N)=O)NC(=O)C(C)(C)NC(=O)[C@@H](N)Cc1c[nH]cn1)[C@@H](C)O)[C@@H](C)O)C(C)C)C(C)C)C(=O)N[C@@H](CCC(=O)O)C(=O)N[C@@H](C)C(=O)NC(C)(C)C(=O)NCC(=O)O [Peptide 525] | 
7 |  |  |  | 690 pM | 194 pM | 7.0 | CC(C)C[C@H](NC(=O)[C@H](Cc1c[nH]c2ccccc12)NC(=O)[C@H](C)NC(=O)[C@@H](NC(=O)[C@H](Cc1ccccc1)NC(=O)[C@H](CC(=O)O)NC(=O)[C@H](CCCCNC(=O)COCCOCCNC(=O)COCCOCCNC(=O)CC[C@H](NC(=O)CCCCCCCCCCCCCCCCC(=O)O)C(=O)O)NC(=O)[C@H](C)NC(=O)[C@H](CCCNC(=N)N)NC(=O)[C@H](CCC(=O)O)NC(=O)[C@H](CO)NC(=O)[C@H](CC(=O)O)NC(=O)[C@H](CC(C)C)NC(=O)[C@](C)(Cc1ccccc1)NC(=O)[C@H](CCCCN)NC(=O)[C@H](CO)NC(=O)[C@@H](NC(=O)[C@H](CC(=O)O)NC(=O)[C@H](CO)NC(=O)[C@@H](NC(=O)[C@H](Cc1ccccc1)NC(=O)[C@@H](NC(=O)CNC(=O)[C@H](CCC(N)=O)NC(=O)C(C)(C)NC(=O)[C@@H](N)Cc1c[nH]cn1)[C@@H](C)O)[C@@H](C)O)C(C)C)C(C)C)C(=O)N[C@@H](CCC(=O)O)C(=O)N[C@@H](C)C(=O)NC(C)(C)C(=O)NCC(=O)O [Peptide 526] | 
